# Assay results published in patent publication EP0812190B1 (priority 1993, dated 1995).
# Counter-ions that a name gives are not always drawn. Like-named read-outs stand apart in the source and are kept apart here.
# Experiments:
# [1] = test system: haloperidol-induced catalepsy
# MAO-B [2] = target: T1, MAO-B (Rattus norvegicus, UniProt P19643); assay: in vivo; conditions: rat
# T1 sequence (P19643 1-520): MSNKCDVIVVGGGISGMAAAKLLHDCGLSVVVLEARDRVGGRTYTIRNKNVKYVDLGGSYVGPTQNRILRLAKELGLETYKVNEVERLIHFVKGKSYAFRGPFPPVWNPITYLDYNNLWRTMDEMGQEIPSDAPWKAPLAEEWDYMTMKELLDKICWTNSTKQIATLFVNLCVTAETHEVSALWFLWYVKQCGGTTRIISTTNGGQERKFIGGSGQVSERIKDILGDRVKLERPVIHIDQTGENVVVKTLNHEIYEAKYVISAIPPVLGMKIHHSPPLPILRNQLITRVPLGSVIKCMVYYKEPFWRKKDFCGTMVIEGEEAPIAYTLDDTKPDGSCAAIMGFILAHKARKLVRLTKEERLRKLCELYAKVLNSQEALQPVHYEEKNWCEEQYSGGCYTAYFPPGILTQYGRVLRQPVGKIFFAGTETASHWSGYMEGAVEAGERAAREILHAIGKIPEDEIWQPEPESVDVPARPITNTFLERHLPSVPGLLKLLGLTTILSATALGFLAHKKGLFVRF
# Method: Groups of three rats were used for each dose level of inhibitor, and MAO activity determined in brain and liver using the general technique described above. The amount of protein in each incubation was determined using the Folin-Lowry method, and enzyme activity calculated as nmol of substrate metabolized per hour of incubation for each mg of protein. Activity of MAO in tissues from animals treated with inhibitors was expressed as a percentage of the enzyme activity in a group of control animals administered vehicle (water for oral administration, 0.9% saline for ip injection) and killed as above.
# [3] = test system: heart rate, blood pressure, cardiovascular effects of tyramine; conditions: cited from earlier work
# MAO-A = target: T2, MAO-A (Rattus norvegicus, UniProt P21396); assay: Inhibition of MAO activity in vivo, acute treatment, MAO-A; parameters: MAO activity determined in brain and liver using the general technique described above; from tissue; host or cells: brain and liver of treated rats; conditions: dose producing 50% inhibition, rat
# T2 sequence (P21396 1-526): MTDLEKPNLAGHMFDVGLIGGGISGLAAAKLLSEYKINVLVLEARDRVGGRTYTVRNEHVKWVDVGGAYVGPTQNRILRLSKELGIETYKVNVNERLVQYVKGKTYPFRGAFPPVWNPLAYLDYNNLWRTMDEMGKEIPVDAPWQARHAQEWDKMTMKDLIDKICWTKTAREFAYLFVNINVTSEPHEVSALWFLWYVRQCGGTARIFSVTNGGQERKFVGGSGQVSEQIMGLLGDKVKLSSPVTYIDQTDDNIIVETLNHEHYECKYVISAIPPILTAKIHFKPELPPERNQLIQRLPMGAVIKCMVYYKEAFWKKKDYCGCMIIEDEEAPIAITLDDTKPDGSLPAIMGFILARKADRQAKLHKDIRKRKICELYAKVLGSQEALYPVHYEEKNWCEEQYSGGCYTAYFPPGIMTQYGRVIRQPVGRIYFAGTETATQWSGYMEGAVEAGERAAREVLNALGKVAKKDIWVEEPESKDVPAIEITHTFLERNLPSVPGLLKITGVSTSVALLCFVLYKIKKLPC
# MAO-B [4] = target: T1, MAO-B; assay: Rat brain MAO inhibition by propargylamines (Table IA), MAO-B; assay type: biochemical; parameters: in a rat brain preparation of MAO; from tissue; host or cells: rat brain preparation; conditions: ratio MAO-A / MAO-B for one epimer
# [5] = test system: MPTP-induced striatal dopamine depletions; assay: Suppression of MPTP-induced dopaminergic toxicity (striatal DA and DOPAC); assay type: in vivo, mice; conditions: striatum
# Method: Brains were removed and corpora striata dissected on an ice-cold glass plate and frozen on dry ice. Striatal tissues were homogenized in 0.1 M perchloric acid, and deproteinized aliquots containing dihydroxybenzylamine as an internal standard were assayed for dopamine and its major metabolite 3,4-dihydroxy-phenylacetic acid (DOPAC) using HPLC with electrochemical detection.
# rabbit jejunum = assay: Tyramine potentiation in rabbit jejunum preparation
# [6] = test system: NMDA-induced cell death of cerebellum cells; assay: cells; conditions: Rattus norvegicus, 24 h
# Method: Procedures: Cultures of mechanically dissociated neonatal rat cerebellum. […] The cerebella are then dissociated after 20-25 passages through a sterile 13 gauge, 10 cm long stainless steel needle attached to a 5 ml syringe with an inserted 45 µm pore size nylon sieve. The dissociated cells are centrifuged at 200g for 5 minutes, the supernatant discarded and the cells resuspended in enriched medium. The cell viability is determined by the trypan blue exclusion test. […] After 4 days in culture, the media are replaced with media containing the desired test compounds. Experiments are done in duplicate and repeated 2 or 3 times. […] Nerve cell survival is evaluated by phase contrast microscopy and trypan blue staining after 24 h.
# [7] = test system: amphetamine-induced stereotype behavior; conditions: control senescent rats; 0.5 mg/kg/day in drinking water; lateral head movements over 1 minute, 45 min after amphetamine 0.5 mg/kg s.c.
# Method: The extent of this behavior is rated in accordance with the number of lateral head movements over a period of 1 minute.
# Following that, amphetamine was injected s.c. at a dose of 0.5 mg/kg. 45 minutes later, lateral head movements were counted.
# guinea-pig ileum [8] = test system: guinea-pig ileum
# guinea-pig ileum [9] = assay: tissue or blood; conditions: Cavia porcellus, read-out: Percent relaxation
# guinea-pig ileum [10] = assay: tissue or blood; conditions: Cavia porcellus, read-out: Percent relaxation; remark: listed apart in the source
# [11] = test system: α-MpT-induced hypokinesia; assay: Reversal of α-MpT-induced hypokinesia in rats; assay type: in vivo; conditions: α-MpT 100 mg/kg i.p. alone
# Method: The drug α-MpT is assumed to inhibit the formation of L-DOPA from tyrosine, and consequently the formation of dopamine itself. Lack of CNS dopamine is expressed as hypoactivity. Six month-old male Wistar rats (from Harlan Orkack, UK) were pretreated with saline, [R] […] Two hours later they received i.p. α-MpT at a dose of 100 mg/kg in 0.3-0.5 mL. Controls received saline. Following this, motor activity was recorded in a computerized activity cage for the duration of 10 hours. […] (+)PAI Mesylate at 2 mg/kg.
# [12] = Comparative stability: visual inspection of color and form; assay type: physicochemical
# Method: Comparative stability studies were carried out under sets of several accelerating conditions: I) heating at 80°C for 72, 96 or 144 hours; and II) reflux in isopropanol for 30 hours. The degradation products developed were measured by HPLC and confirmed by TLC. The results are presented in Table 9 with the relative retention time (relative to the PAI peak; RRT) as an area percentage relative to total integrated peak area.
# The salts were submitted to visual inspection of color and form.
# [13] = pH of 1% aqueous solution of PAI salts; assay type: physicochemical
# Method: (§1) The melting range was measured with an automatic apparatus (Mettler FP 80) and thermo-gravimetric analysis was performed on a Mettler TA 3000 system at a rate of 10°C/min in the applicable range. […] The pH was measured in a 1% aqueous solution of the PAI salts.
# [14] = Thermo-gravimetric analysis of PAI salts; assay type: physicochemical; conditions: 10°C/min
# Method: as §1
# [15] = comparative animal tests versus (-)-deprenyl
molecule,measurement,setting,value
"C#CCNC1CCc2ccccc21 (racemic) [Rac PAI Mesylate, reference compound]",Score+SE,"[1]; 5.0 mg/kg i.p., listed as Racemic PAI mesylate",not active
"C#CCNC1CCc2ccccc21 (racemic) [Rac, N-propargyl-1-aminoindan, reference compound]",IC-50 MAO-B P.O. BRAIN,"MAO-B [2]; dose producing 50% inhibition, p.o., 2h",0.29 mg/kg
same,ED50,"MAO-B [2]; ip, 1 h, read-out: IC-50 MAO-B I.P. BRAIN",0.22 mg/kg
same,ED50,"MAO-B [2]; ip, 1 h, read-out: IC-50 MAO-B I.P. LIVER",0.11 mg/kg
same,ED50,"MAO-B [2]; po, 2 h, read-out: IC-50 MAO-B P.O. LIVER",0.09 mg/kg
same,blood pressure,[3]; [15],does not increase blood pressure
same,tachycardia,[3]; [15],no significant tachycardia
same,IC-50 MAO-A I.P. BRAIN,"MAO-A; i.p., 1h",2.5 mg/kg
same,IC-50 MAO-A I.P. LIVER,"MAO-A; i.p., 1h",5 mg/kg
same,IC-50 MAO-A P.O. BRAIN,"MAO-A; p.o., 2h",>5 mg/kg
same,IC-50 MAO-A P.O. LIVER,"MAO-A; p.o., 2h",>5 mg/kg
"C#CCNC1CCc2ccccc21 (racemic) [racemic PAI·HCl, Racemic N-propargyl-1-aminoindan hydrochloride]",potentiation of the cardiovascular effects of tyramine,[3]; in vivo,does not potentiate the cardiovascular effects of tyramine
"C#CCN(C)C1CCCc2ccccc21 (single isomer, unassigned) [2-MPAI +, N-Methyl-N-propargyl-1-aminotetralin]",RELATIVE POTENCY A/B,MAO-B [4],8.8
"C#CCN(C)C1CCCc2ccccc21 (single isomer, unassigned) [2-MPAI -, N-Methyl-N-propargyl-1-aminotetralin]",RELATIVE POTENCY A/B,MAO-B [4],0.5
"C#CCNC1CCCc2ccccc21 (centres unmarked) [1-PAT R, N-propargyl-1-aminotetralin]",RELATIVE POTENCY A/B,MAO-B [4],10
"C#CCNC1CCCc2ccccc21 (centres unmarked) [1-PAT S, N-propargyl-1-aminotetralin]",RELATIVE POTENCY A/B,MAO-B [4],76
"O=C(CCCN1CCC(O)(c2ccc(Cl)cc2)CC1)c1ccc(F)cc1 [Haloperidol, reference compound]",Score+SE,"[1]; haloperidol 6mg/kg s.c. alone, 3 hours after",6.6±0.3
same,Score+SE,"[1]; haloperidol 6mg/kg s.c. alone, 3 hours after, listed as haloperidol",6.6±0.03
"CN1CC=C(c2ccccc2)CC1 [MPTP, 1-Methyl-phenyl-1,2,3,6-tetrahydropyridine]",DA,[5]; MPTP-HCl 30 mg/kg s.c. alone,53.1±6.2 ng/mg protein
same,DOPAC,[5]; MPTP-HCl 30 mg/kg s.c. alone,3.2±0.3 ng/mg protein
NC[C@H](O)c1ccc(O)c(O)c1 [Norepiniphrine],Percent relaxation,rabbit jejunum; 0.002 µM,100%
"NCCCNCCCCNCCCN [Spermine, reference compound]",inhibition at 0.01 µM,[6]; read-out: Percent Protection,65%
same,viability at 0.01 µM,[6]; read-out: Surviving Cells,75%
NCCc1ccc(O)cc1 [Tyramine],Percent relaxation,rabbit jejunum; tyramine alone 40 µM,0%
"C#CCN[C@H]1CCc2ccccc21 [[S](-)PAI, S-(-)-N-propargyl-1-aminoindan, reference compound]",DOPAC,"[5]; drug alone (PAI isomers […] i.p., deprenyl 5 mg/kg i.p.)",7.5±0.2 ng/mg protein
same,DA,"[5]; drug alone (PAI isomers […] i.p., deprenyl 5 mg/kg i.p.), Mean±S.E.M.",174.0±4.8 ng/mg protein
same,DA,"[5]; pretreatment one hour before MPTP-HCl 30 mg/kg s.c. (PAI isomers […] i.p., deprenyl 5 mg/kg i.p.), 5 days later",53.4±6.9 ng/mg protein
same,DOPAC,"[5]; pretreatment one hour before MPTP-HCl 30 mg/kg s.c., 5 days later",7.0±0.6 ng/mg protein
same,Stereotype Behavior Rating,[7],totally inactive
same,Percent relaxation,rabbit jejunum; PAI HCl enantiomer alone 0.2-4.0 µM,0%
same,Percent relaxation,rabbit jejunum; tyramine 40 µM after 0.2 µM PAI HCl enantiomer,0%
same,Percent relaxation,rabbit jejunum; tyramine 40 µM after 2 µM PAI HCl enantiomer,35%
same,Percent relaxation,rabbit jejunum; tyramine 40 µM after 40 µM PAI HCl enantiomer,33-50%
same,gram-tension,"guinea-pig ileum [8]; bethanechol 0.8 µM, 400 µM PAI HCl enantiomer",0 gram-tension
same,gram-tension,"guinea-pig ileum [8]; bethanechol 2 µM, 400 µM enantiomer",0 gram-tension
same,gram-tension,"guinea-pig ileum [8]; bethanechol 4 µM, 400 µM enantiomer",0 gram-tension
same,gram-tension,"guinea-pig ileum [8]; bethanechol 20 µM, 400 µM enantiomer",1.2 gram-tension
same,gram-tension,"guinea-pig ileum [8]; bethanechol 80 µM, 400 µM enantiomer",2.6 gram-tension
same,gram-tension,"guinea-pig ileum [8]; bethanechol 200 µM, 400 µM enantiomer",2.6 gram-tension
same,inhibition at 2 µM,guinea-pig ileum [9],11%
same,inhibition at 30 µM,guinea-pig ileum [9],33%
same,inhibition at 40 µM,guinea-pig ileum [9],36%
same,inhibition at 200 µM,guinea-pig ileum [9],90%
same,inhibition at 400 µM,guinea-pig ileum [9],98%
same,inhibition at 1000 µM,guinea-pig ileum [9],100%
same,inhibition at 60 µM,guinea-pig ileum [10],60 to 70%
same,inhibition at 300 µM,guinea-pig ileum [10],100%
"CC(N)(Cc1ccc(O)cc1)C(=O)O (stereo not drawn) [α-Mpt, α-methyl-p-tyrosine, reference compound]",% of control,[11],51%
same,"Score (total motor activity, 10 hours)",[11],"8,108±810"
chloride,appearance,[12]; 80°C/72h,white powder
same,appearance,[12]; 80°C/144h,white powder
same,appearance,[12]; reflux in iPrOH/30h,off white powder
fumarate,pH,[13],3.5
same,%Wt. loss,[14],0.2%
same,Solubility,water,95 mg/mL
maleate,%Wt. loss,[14],0.1%
same,appearance,[12]; 80°C/72h,brown melted
same,appearance,[12]; 80°C/96h,brown
same,appearance,[12]; reflux in iPrOH/30h,brown melted
same,Solubility,water,NLT 1000 mg/ml
phosphate,appearance,[12]; 80°C/72h,brownish powder
same,appearance,[12]; 80°C/144h,brown powder
same,appearance,[12]; reflux in iPrOH/30h,brown powder
sulphate,appearance,[12]; 80°C/72h,off white powder
same,appearance,[12]; 80°C/144h,off white powder
same,appearance,[12]; reflux in iPrOH/30h,brown powder
tartarate,pH,[13],5.5
same,%Wt. loss,[14],LT 0.1%
tosylate,pH,[13],4.4
same,%Wt. loss,[14],LT 0.1%
same,Solubility,saturated salt water solution,60 to 70 mg/mL
